Calls of active or inactive are those of the source.
What was measured:
Format in all cases: functional
[1] = target: Ribosomal protein S6 kinase alpha-3 (Homo sapiens, UniProt P51812);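 further: measured within a kinome-wide profiling panel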
[2] = target: Serine/threonine-protein kinase PLK3 (Homo sapiens, UniProt Q9H4B4)
[3] = target: Protein kinase C delta type (Homo sapiens, UniProt Q05655)
[4] = target: ALK tyrosine kinase receptor (Homo sapiens, UniProt Q9UM73);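 further: ALK tested as one member of a kinase panel screen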
[5] = target: Serine/threonine-protein kinase D2 (Homo sapiens, UniProt Q9BZL6);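 further: measured against PRKD2 as one member of a kinome-wide kinase profiling panel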
[6] = target: Tyrosine-protein kinase SYK (Homo sapiens, UniProt P43405)
[7] = target: Tyrosine-protein kinase receptor TYRO3 (Homo sapiens, UniProt Q06418);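 further: TYRO3 value obtained as one member of a kinome-wide profiling panel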
[8] = target: Serine/threonine-protein kinase D3 (Homo sapiens, UniProt O94806);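 further: determined within a kinase panel screen, with PRKCN as the panel member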
[9] = target: Tyrosine-protein kinase Lck (Homo sapiens, UniProt P06239);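 further: lck was assayed as one member of a kinase panel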
[10] = target: Serine/threonine-protein kinase Chk2 (Homo sapiens, UniProt O96017);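 further: CHEK2 entry within a kinome-wide screening panel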
Aurora kinase A = Aurora kinase A (Homo sapiens, UniProt O14965);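 further: value from the Navigating the Kinome kinase panel profiling, panel entry STK6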
[11] = target: MAP kinase-activated protein kinase 5 (Homo sapiens, UniProt Q8IW41);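 further: measured as one member of a kinome panel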
[12] = target: MAP kinase-activated protein kinase 2 (Homo sapiens, UniProt P49137);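 further: measured as one member of a kinome-wide kinase panel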
[13] = target: Cell division cycle 7-related protein kinase (Homo sapiens, UniProt O00311);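 further: value obtained from a kinome-wide kinase panel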
[14] = target: Casein kinase II subunit alpha (Homo sapiens, UniProt P68400)
[15] = target: Serine/threonine-protein kinase PAK 1 (Homo sapiens, UniProt Q13153)
[16] = target: Casein kinase I isoform alpha (Homo sapiens, UniProt P48729)
[17] = target: Casein kinase I isoform gamma-1 (Homo sapiens, UniProt Q9HCP0);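 further: measured as the CSNK1G1 member of a kinome profiling panel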
[18] = target: Tyrosine-protein kinase ITK/TSK (Homo sapiens, UniProt Q08881);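 further: affinity for ITK measured as one member of a broad kinase panel profiling binding across the kinome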
[19] = target: Serine/threonine-protein kinase N2 (Homo sapiens, UniProt Q16513)
[20] = target: Homeodomain-interacting protein kinase 2 (Homo sapiens, UniProt Q9H2X6);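 further: measured within a kinome-wide kinase profiling panel, HIPK2 being one panel member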
[21] = target: MAP/microtubule affinity-regulating kinase 3 (Homo sapiens, UniProt P27448);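 further: MARK3 affinity measured as one member of a kinome panel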
[22] = target: Mitogen-activated protein kinase 13 (Homo sapiens, UniProt O15264)
[23] = target: Mitogen-activated protein kinase kinase kinase 20 (Homo sapiens, UniProt Q9NYL2)
[24] = target: Glycogen synthase kinase-3 alpha (Homo sapiens, UniProt P49840);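 further: GSK3A result taken from a broad kinome-wide kinase panel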
[25] = target: Dual specificity tyrosine-phosphorylation-regulated kinase 3 (Homo sapiens, UniProt O43781);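 further: measured as one member of a broad kinase panel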
[26] = target: Receptor tyrosine-protein kinase erbB-2 (Homo sapiens, UniProt P04626); assay: Navigating the Kinome. Panel member name: ERBB2
[27] = target: Serine/threonine-protein kinase Chk1 (Homo sapiens, UniProt O14757);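 further: measured as one member of a kinome-wide kinase profiling panel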
[28] = target: Vascular endothelial growth factor receptor 2 (Homo sapiens, UniProt P35968)
[29] = target: Mitogen-activated protein kinase 1 (Homo sapiens, UniProt P28482)
[30] = target: Serine/threonine-protein kinase Nek4 (Homo sapiens, UniProt P51957)
[31] = target: Dual specificity tyrosine-phosphorylation-regulated kinase 4 (Homo sapiens, UniProt Q9NR20)
[32] = target: cAMP-dependent protein kinase catalytic subunit PRKX (Homo sapiens, UniProt P51817)
Focal adhesion kinase 1 = Focal adhesion kinase 1 (Homo sapiens, UniProt Q05397);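 further: measured as one member of a kinome panel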
[33] = target: Interleukin-1 receptor-associated kinase 1 (Homo sapiens, UniProt P51617);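 further: IRAK1 tested as one member of a kinome panel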
[34] = target: Interleukin-1 receptor-associated kinase 4 (Homo sapiens, UniProt Q9NWZ3)
[35] = target: Mitogen-activated protein kinase kinase kinase kinase 5 (Homo sapiens, UniProt Q9Y4K4);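 further: measured as one member of a kinome-spanning kinase panel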
[36] = target: Tyrosine-protein kinase Fer (Homo sapiens, UniProt P16591);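 further: FER tested as one member of a kinome panel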
[37] = target: Calcium/calmodulin-dependent protein kinase type 1 (Homo sapiens, UniProt Q14012)
[38] = target: Tyrosine-protein kinase Fyn (Homo sapiens, UniProt P06241)
[39] = target: 3-phosphoinositide-dependent protein kinase 1 (Homo sapiens, UniProt O15530);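 further: value comes from the Navigating the Kinome panel, PDPK1 member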
[40] = target: Serine/threonine-protein kinase DCLK1 (Homo sapiens, UniProt O15075);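 further: affinity for DCLK1 (listed as DCAMKL1) measured as one member of a kinome-wide kinase profiling panel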
[41] = target: STE20-like serine/threonine-protein kinase (Homo sapiens, UniProt Q9H2G2)
[42] = target: Mitogen-activated protein kinase 12 (Homo sapiens, UniProt P53778);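 further: measured as one member of a kinome-wide kinase profiling panel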
[43] = target: Serine/threonine-protein kinase MRCK alpha (Homo sapiens, UniProt Q5VT25)
[44] = target: Macrophage colony-stimulating factor 1 receptor (Homo sapiens, UniProt P07333);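 further: value comes from the Navigating the Kinome screening panel, CSF1R member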
[45] = target: Serine/threonine-protein kinase 3 (Homo sapiens, UniProt Q13188);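 further: measured as one member of a kinome-wide kinase panel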
Sequence of Serine/threonine-protein kinase 3 (Q13188 whole entry): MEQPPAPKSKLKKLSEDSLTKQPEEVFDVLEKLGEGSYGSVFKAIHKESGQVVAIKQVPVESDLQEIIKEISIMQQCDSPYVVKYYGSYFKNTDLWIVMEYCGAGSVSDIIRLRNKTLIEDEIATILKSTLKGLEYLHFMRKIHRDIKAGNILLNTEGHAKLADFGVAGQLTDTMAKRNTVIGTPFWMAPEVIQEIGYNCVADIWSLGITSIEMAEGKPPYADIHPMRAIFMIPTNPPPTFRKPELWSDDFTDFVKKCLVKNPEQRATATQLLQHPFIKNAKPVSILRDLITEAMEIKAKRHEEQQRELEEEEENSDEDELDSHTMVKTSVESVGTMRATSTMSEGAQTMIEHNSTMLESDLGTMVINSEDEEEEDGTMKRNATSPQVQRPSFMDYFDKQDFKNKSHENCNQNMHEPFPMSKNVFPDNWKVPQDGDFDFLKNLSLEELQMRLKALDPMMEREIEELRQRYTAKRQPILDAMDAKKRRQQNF

Sequence of Mitogen-activated protein kinase 13 (O15264 whole entry): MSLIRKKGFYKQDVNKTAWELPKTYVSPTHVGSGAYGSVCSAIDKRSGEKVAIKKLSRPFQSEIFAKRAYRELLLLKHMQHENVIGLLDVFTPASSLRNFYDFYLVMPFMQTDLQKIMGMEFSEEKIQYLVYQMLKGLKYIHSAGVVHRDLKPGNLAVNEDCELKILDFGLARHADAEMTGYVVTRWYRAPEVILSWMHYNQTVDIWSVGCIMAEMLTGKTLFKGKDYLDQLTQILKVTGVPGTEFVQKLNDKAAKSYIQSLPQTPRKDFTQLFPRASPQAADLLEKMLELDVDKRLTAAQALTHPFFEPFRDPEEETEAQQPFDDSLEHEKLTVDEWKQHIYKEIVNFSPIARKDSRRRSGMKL
Sequence of Serine/threonine-protein kinase MRCK alpha (Q5VT25 whole entry): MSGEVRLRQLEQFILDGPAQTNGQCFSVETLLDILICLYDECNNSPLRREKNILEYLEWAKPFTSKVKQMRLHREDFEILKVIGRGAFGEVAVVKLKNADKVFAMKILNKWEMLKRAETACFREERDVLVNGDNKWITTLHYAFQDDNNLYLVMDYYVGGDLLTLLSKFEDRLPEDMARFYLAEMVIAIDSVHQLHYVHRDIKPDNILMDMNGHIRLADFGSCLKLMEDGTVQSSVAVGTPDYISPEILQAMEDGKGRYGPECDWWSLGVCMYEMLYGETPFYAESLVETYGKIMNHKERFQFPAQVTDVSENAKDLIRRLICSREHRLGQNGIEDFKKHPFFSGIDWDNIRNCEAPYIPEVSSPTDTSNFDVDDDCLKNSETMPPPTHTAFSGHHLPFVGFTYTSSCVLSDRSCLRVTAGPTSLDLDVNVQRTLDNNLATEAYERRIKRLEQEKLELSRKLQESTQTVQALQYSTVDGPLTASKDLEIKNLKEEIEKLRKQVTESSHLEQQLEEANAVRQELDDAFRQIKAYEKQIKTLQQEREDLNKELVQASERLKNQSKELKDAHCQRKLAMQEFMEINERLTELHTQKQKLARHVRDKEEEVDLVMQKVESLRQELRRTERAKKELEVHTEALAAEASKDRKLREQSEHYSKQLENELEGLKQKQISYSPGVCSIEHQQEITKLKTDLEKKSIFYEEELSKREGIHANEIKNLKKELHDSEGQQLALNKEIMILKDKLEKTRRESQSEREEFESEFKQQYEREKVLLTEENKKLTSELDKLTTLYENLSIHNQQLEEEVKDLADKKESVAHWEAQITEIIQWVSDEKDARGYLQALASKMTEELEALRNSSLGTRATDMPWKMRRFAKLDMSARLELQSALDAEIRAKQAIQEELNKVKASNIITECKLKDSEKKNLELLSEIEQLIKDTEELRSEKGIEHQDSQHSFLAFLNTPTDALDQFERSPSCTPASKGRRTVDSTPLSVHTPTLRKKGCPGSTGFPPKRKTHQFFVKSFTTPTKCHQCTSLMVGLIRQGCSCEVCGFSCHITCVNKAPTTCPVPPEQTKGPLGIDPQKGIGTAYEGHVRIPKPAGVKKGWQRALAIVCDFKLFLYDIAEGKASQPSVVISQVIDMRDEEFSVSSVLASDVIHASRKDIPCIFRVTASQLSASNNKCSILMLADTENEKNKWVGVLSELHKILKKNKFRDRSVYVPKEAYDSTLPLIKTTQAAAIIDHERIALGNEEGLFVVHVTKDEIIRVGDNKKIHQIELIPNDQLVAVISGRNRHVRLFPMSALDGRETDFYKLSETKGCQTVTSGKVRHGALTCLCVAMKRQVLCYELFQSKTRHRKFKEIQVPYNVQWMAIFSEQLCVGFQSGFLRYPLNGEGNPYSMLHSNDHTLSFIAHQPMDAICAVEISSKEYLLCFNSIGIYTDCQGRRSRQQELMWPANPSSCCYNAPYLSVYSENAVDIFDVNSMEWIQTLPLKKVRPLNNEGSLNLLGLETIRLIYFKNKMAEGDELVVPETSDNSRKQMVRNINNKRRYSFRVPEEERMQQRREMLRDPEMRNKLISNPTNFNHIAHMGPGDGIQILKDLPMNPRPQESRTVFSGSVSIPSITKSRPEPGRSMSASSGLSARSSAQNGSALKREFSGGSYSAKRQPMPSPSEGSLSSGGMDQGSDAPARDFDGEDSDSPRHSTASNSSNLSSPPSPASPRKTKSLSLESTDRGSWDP
Sequence of Mitogen-activated protein kinase kinase kinase 20 (Q9NYL2 whole entry): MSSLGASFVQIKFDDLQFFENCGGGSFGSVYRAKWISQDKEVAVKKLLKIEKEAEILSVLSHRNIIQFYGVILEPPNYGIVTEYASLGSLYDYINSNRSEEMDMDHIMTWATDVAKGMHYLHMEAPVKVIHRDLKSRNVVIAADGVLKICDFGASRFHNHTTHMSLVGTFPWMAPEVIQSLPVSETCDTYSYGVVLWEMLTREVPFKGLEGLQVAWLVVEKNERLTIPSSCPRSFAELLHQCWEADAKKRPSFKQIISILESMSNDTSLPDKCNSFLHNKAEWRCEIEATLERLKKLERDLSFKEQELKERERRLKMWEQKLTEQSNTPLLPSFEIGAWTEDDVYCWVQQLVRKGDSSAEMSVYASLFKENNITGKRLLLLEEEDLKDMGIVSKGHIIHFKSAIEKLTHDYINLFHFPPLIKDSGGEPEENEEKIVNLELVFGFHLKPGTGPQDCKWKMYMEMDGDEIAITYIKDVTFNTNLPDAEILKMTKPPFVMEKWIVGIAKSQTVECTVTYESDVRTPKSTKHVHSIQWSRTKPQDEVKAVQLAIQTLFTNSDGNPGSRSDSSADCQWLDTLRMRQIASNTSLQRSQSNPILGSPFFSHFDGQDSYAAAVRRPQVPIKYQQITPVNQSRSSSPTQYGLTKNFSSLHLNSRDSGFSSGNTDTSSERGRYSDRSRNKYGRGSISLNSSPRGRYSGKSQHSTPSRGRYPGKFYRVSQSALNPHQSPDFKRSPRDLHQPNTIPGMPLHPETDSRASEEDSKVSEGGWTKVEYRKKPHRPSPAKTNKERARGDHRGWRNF
Sequence of Serine/threonine-protein kinase N2 (Q16513 whole entry): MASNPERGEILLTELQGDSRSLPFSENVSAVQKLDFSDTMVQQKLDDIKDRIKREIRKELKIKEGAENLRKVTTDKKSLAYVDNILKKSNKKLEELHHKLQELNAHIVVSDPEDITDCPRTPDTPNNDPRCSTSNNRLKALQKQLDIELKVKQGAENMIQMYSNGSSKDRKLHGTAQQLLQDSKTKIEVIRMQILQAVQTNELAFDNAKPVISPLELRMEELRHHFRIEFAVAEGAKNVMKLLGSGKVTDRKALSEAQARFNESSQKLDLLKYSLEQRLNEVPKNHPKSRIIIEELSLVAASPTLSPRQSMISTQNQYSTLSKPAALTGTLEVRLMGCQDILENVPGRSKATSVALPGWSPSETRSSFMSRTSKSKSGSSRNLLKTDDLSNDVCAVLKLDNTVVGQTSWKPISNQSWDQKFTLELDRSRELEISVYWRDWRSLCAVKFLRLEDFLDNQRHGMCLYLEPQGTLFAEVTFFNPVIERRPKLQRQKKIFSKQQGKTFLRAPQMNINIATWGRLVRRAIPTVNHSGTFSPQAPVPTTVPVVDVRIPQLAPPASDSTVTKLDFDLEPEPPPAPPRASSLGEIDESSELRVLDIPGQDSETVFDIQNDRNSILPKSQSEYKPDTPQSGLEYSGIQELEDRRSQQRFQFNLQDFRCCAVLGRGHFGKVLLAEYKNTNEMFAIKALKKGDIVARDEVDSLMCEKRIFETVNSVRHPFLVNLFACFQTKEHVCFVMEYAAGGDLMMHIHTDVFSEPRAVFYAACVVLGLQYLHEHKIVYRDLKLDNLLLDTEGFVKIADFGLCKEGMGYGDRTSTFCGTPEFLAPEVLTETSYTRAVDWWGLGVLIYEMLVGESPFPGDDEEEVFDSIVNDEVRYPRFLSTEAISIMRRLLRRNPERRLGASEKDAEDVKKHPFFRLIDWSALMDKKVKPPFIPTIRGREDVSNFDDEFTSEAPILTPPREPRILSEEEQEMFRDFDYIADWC
Sequence of Cell division cycle 7-related protein kinase (O00311 whole entry): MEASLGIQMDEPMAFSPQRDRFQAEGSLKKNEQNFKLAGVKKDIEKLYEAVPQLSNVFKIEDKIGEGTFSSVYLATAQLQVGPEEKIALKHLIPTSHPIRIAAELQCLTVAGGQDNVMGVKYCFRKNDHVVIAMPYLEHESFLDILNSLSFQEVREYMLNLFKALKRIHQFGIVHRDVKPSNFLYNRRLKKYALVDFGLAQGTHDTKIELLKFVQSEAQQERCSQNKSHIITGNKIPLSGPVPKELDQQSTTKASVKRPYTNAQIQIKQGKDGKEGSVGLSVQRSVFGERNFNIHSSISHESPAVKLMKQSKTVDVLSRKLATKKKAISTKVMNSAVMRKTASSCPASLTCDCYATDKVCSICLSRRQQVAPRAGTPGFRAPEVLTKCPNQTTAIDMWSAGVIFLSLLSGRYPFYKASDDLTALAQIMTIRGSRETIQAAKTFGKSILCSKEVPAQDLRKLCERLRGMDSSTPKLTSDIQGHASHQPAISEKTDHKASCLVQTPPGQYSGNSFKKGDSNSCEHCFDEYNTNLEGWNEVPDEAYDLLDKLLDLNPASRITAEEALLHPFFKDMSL

- Ki [1]: 5010 nM (active)
- Ki [2]: > 7940 nM (inactive)
- Ki [3]: 5010 nM (active)
- Ki [4]: > 1260 nM (inactive)
- Ki [5]: 794 nM (active)
- Ki [6]: 200 nM (active)
- Ki [7]: > 2000 nM (inactive)
- Ki [8]: 1000 nM (active)
- Ki [9]: > 2510 nM (inactive)
- Ki [10]: 39.8 nM (active)
- Ki (Aurora kinase A): 1260 nM (active)
- Ki [11]: 631 nM (active)
- Ki [12]: 25.1 nM (active)
- Ki [13]: 126 nM (active)
- Ki [14]: > 6310 nM (inactive)
- Ki [15]: 3980 nM (active)
- Ki [16]: > 6310 nM (inactive)
- Ki [17]: > 6310 nM (inactive)
- Ki [18]: > 1580 nM (inactive)
- Ki [19]: 79.4 nM (active)
- Ki [20]: > 3160 nM (inactive)
- Ki [21]: 398 nM (active)
- Ki [22]: 794 nM (active)
- Ki [23]: > 7940 nM (inactive)
- Ki [24]: 50.1 nM (active)
- Ki [25]: 631 nM (active)
- Ki [26]: 1000 nM (active)
- Ki [27]: > 7940 nM (inactive)
- Ki [28]: 1260 nM (active)
- Ki [29]: > 7940 nM (inactive)
- Ki [30]: 3980 nM (active)
- Ki [31]: 2000 nM (active)
- Ki [32]: 39.8 nM (active)
- Ki (Focal adhesion kinase 1): > 1580 nM (inactive)
- Ki [33]: 7940 nM (active)
- Ki [34]: > 10000 nM (inactive)
- Ki [35]: 631 nM (active)
- Ki [36]: > 1580 nM (inactive)
- Ki [37]: > 5010 nM (inactive)
- Ki [38]: > 794 nM (inactive)
- Ki [39]: 7.94 nM (active)
- Ki [40]: > 10000 nM (inactive)
- Ki [41]: 1580 nM (active)
- Ki [42]: 5010 nM (active)
- Ki [43]: 3980 nM (active)
- Ki [44]: > 2510 nM (inactive)
- Ki [45]: 2510 nM (active)
SMILES: NC(=O)Cn1cc(-c2cc(-c3cc4ccccc4s3)c3[nH]ncc3c2)c2nc(N)ncc21
